According to patent US20230287217A1, “Zwitterionic Cell-Permeant and Water-Soluble Rhodamine Dyes for Quantitative Imaging Applications” (OREGON HEALTH & SCIENCE UNIVERSITY, priority 2020, published 2023):

Key:
[1] = UV-Vis absorption and fluorescence spectroscopy (spectral properties in aqueous media / PBS buffer); format: physicochemical; design: Brightness: unit not given here; settings: for Brightness / Stokes Shift (nm) / FWHMabs (nm) / λabs (nm) / FWHem (nm) / λem (nm) / ε (M^-1 cm-1) / ϕ: aqueous media; for FWHMabs (nm): absorption band width; for λabs (nm): absorption maximum; for FWHem (nm): emission band width; for λem (nm): emission maximum; for ε (M^-1 cm-1): extinction coefficient from Beer's Law plots; for ϕ: relative quantum yield, TMR and SiTMR as reference
Experimental: UV-Vis and fluorescence spectra were collected on a SpectraMax M5 spectrometer with a Microplate reader (Molecular Devices, Sunnyvale, CA). All absorbance spectra were reference corrected. Extinction coefficient was calculated from Beer’s Law plots of absorbance versus concentration. Relative quantum yields are reported using TMR and SiTMR as reference.

[2] = Absorption and fluorescence stability against solvent polarity changes (dioxane 20-80% in DI water); format: physicochemical; settings: compared with base fluorophores TMR and SiTMR (SiR)
Excerpt: FIG. 2D graphs normalized absorption (left) and fluorescence spectra (right) of fluorophores with varied percentages of dioxane (20-80%) in DI water resulting the polarity of the screening solvent systems changing in a gradient manner.
A. general rhodamine fluorophore structures including the classic TMR, SiTMR, and the sulfonated versions. […] This structural change results because the carboxylate anion attacks the central carbon forming a spirolactone, which is both colorless and non-fluorescent. […] C. […] This change in both absorbance and fluorescence intensity was alleviated using our sulfonated versions.

SMILES	Brightness [1]	Stokes Shift (nm) [1] [nm]	FWHMabs (nm) [1] [nm]	λabs (nm) [1] [nm]	FWHem (nm) [1] [nm]	λem (nm) [1] [nm]	ε (M^-1 cm-1) [1]	ϕ [1]	stability of absorbance and fluorescence intensity against solvent polarity changes [2]	brightness compared with the base fluorophore SiTMR ([1]; PBS buffer)
Cc1cc(C(=O)O)ccc1-c1c2cc/c(=[N+](/C)CCCS(=O)(=O)[O-])cc-2oc2cc(N(C)C)ccc12 [OF550COOH, (E)((9-(4-carboxy-2-methylphenyl)-6-(dimethylamino)-3H-xanthenylidene)(methyl)ammonio)propane-1-sulfonate]	78	24	33	554	42	578	112,600 M^-1 cm-1	0.69	–	–
C#Cc1cccc(Nc2ncnc3ccc(NC(=O)CCNC(=O)c4ccc(-c5c6cc/c(=[N+](/C)CCCS(=O)(=O)[O-])cc-6oc6cc(N(C)C)ccc56)c(C)c4)cc23)c1 [OF550Erl(T), (E)((6-(dimethylamino)-9-(4-((3-((4-((3-ethynylphenyl)amino)quinazolin-6-yl)amino)oxopropyl)carbamoyl)-2-methylphenyl)-3H-xanthenylidene)(methyl)ammonio)propane-1-sulfonate]	7	17	80	566	47	583	24,500 M^-1 cm-1	0.28	–	–
Cc1cc(C(=O)NCCCn2cc(-c3cccc(Nc4ncnc5ccccc45)c3)nn2)ccc1-c1c2cc/c(=[N+](/C)CCCS(=O)(=O)[O-])cc-2oc2cc(N(C)C)ccc12 [OF550Erl(UnT), (E)((6-(dimethylamino)-9-(2-methyl-4-((3-(4-(3-(quinazolin-4-ylamino)phenyl)-1H-1,2,3-triazol-1-yl)propyl)carbamoyl)phenyl)-3H-xanthenylidene)(methyl)ammonio)propane-1-sulfonate]	35	25	35	560	44	585	50,200 M^-1 cm-1	0.69	–	–
Cc1cc(C(=O)NCCOCCOCCCCCCCl)ccc1-c1c2cc/c(=[N+](/C)CCCS(=O)(=O)[O-])cc-2oc2cc(N(C)C)ccc12 [OF550HALO, (E)((9-(4-((2-(2-((6-chlorohexyl)oxy)ethoxy)ethyl)carbamoyl)-2-methylphenyl)-6-(dimethylamino)-3H-xanthenylidene)(methyl)ammonio)propane-1-sulfonate]	53	25	34	556	42	581	97,200 M^-1 cm-1	0.55	–	–
Cc1cc(C(=O)NCc2ccc(COc3nc(N)nc4[nH]cnc34)cc2)ccc1-c1c2cc/c(=[N+](/C)CCCS(=O)(=O)[O-])cc-2oc2cc(N(C)C)ccc12 [OF550SNAP, (E)((9-(4-((4-(((2-amino-9H-purin-6-yl)oxy)methyl)benzyl)carbamoyl)-2-methylphenyl)-6-(dimethylamino)-3H-xanthenylidene)(methyl)ammonio)propane-1-sulfonate]	21	24	38	556	43	580	59,500 M^-1 cm-1	0.36	–	–
Cc1ccccc1-c1c2cc/c(=[N+](/C)CCCS(=O)(=O)[O-])cc-2oc2cc(N(C)C)ccc12 [OF550]	59	23	33	552	40	575	97,300 M^-1 cm-1	0.61	substantially improved stability	–
Cc1cc(C(=O)[O-])ccc1C1=C2C=C/C(=[N+](/C)CCCS(=O)(=O)O)C=C2[Si](C)(C)c2cc(N(C)C)ccc21 [OF650COOH, (E)-3-((10-(4-carboxy-2-methylphenyl)-7-(dimethylamino)-5,5-dimethyldibenzo[b,e]silin-3(5H)-ylidene)(methyl)ammonio)propane-1-sulfonate]	82	22	34	650	42	672	200,600 M^-1 cm-1	0.41	–	–
C#Cc1cccc(Nc2ncnc3ccc(NC(=O)CCNC(=O)c4ccc(C5=C6C=C/C(=[N+](/C)CCCS(=O)(=O)[O-])C=C6[Si](C)(C)c6cc(N(C)C)ccc65)c(C)c4)cc23)c1 [OF650Erl(T)]	7	17	38	656	41	673	43,400 M^-1 cm-1	0.16	–	–
Cc1ccccc1C1=C2C=C/C(=[N+](/C)CCCS(=O)(=O)[O-])C=C2[Si](C)(C)c2cc(N(C)C)ccc21 [OF650]	55	19	33	649	40	668	125,500 M^-1 cm-1	0.44	substantially improved stability	five time greater
CN(C)c1ccc2c(c1)[Si](C)(C)C1=CC(=[N+](C)C)C=CC1=C2c1cc(C(=O)O)ccc1C(=O)[O-] [SiRCOOH, 4-carboxy-2-(7-(dimethylamino)-3-(dimethyliminio)-5,5-dimethyl-3,5-dihydrodibenzo[b,e]silin-10-yl)benzoate]	29	22	39	645	42	667	64,700 M^-1 cm-1	0.45	–	–
C#Cc1cccc(Nc2ncnc3ccc(NC(=O)CCNC(=O)c4ccc(C(=O)[O-])c(C5=C6C=CC(=[N+](C)C)C=C6[Si](C)(C)c6cc(N(C)C)ccc65)c4)cc23)c1 [SiRErl(T)]	5	22	42	656	53	678	34,800 M^-1 cm-1	0.13	–	–
CN(C)c1ccc2c(c1)[Si](C)(C)C1=CC(=[N+](C)C)C=CC1=C2c1cc(C(=O)NCCCn2cc(-c3cccc(Nc4ncnc5ccccc45)c3)nn2)ccc1C(=O)[O-] [SiRErl(UnT)]	5	16	38	654	43	670	24,100 M^-1 cm-1	0.19	–	–
CN(C)c1ccc2c(c1)[Si](C)(C)C1=CC(=[N+](C)C)C=CC1=C2c1cc(C(=O)NCCOCCOCCCCCCCl)ccc1C(=O)[O-] [SiRHALO]	3	18	45	646	45	664	11,100 M^-1 cm-1	0.25	–	–
CN(C)c1ccc2c(-c3cc(C(=O)O)ccc3C(=O)[O-])c3ccc(=[N+](C)C)cc-3oc2c1 [TMRCOOH, 4-carboxy-2-(6-(dimethylamino)-3-(dimethyliminio)-3H-xanthen-9-yl)benzoate]	49	26	42	550	44	576	83,800 M^-1 cm-1	0.58	–	–
C#Cc1cccc(Nc2ncnc3ccc(NC(=O)CCNC(=O)c4ccc(C(=O)[O-])c(-c5c6ccc(=[N+](C)C)cc-6oc6cc(N(C)C)ccc56)c4)cc23)c1 [TMRErl(T)]	21	24	39	563	42	587	33,100 M^-1 cm-1	0.62	–	–
CN(C)c1ccc2c(-c3cc(C(=O)NCCCn4cc(-c5cccc(Nc6ncnc7ccccc67)c5)nn4)ccc3C(=O)[O-])c3ccc(=[N+](C)C)cc-3oc2c1 [TMRErl(UnT)]	7	26	44	559	43	585	18,700 M^-1 cm-1	0.37	–	–
CN(C)c1ccc2c(-c3cc(C(=O)NCc4ccc(COc5nc(N)nc6[nH]cnc56)cc4)ccc3C(=O)[O-])c3ccc(=[N+](C)C)cc-3oc2c1 [TMRSNAP]	11	24	58	553	45	577	27,700 M^-1 cm-1	0.41	–	–
CN(C)c1ccc2c(-c3ccccc3C(=O)[O-])c3ccc(=[N+](C)C)cc-3oc2c1 [TMR]	33	25	38	549	42	574	60,900 M^-1 cm-1	0.54	–	–
